Measurements reported in PubChem BioAssay AID330 (DTP/NCI, 2004).
Values joined by “and” are separate entries in the source; they are usually repeats but may differ in a detail not shown here. Equal entries are not always repeated. Inconclusive results and toxic doses are left out. The calls were made as follows: active = survival T/C of 150% or more; inactive = T/C below 125% in these data.

Tested on: P388 leukemia ip, CD2F1 mice, survival T/C
Assay: NCI In Vivo Anticancer Drug Screen. Data for tumor model P388 Leukemia (intraperitoneal) in CD2F1 (CDF1) mice
Conditions: endpoint: median survival time, higher = longer survival
Outline: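 Mice carrying the transplanted tumor received test compound or vehicle. Survival was recorded in each group, and the value is the treated-group measurement divided by that of the vehicle-treated control group.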

[1] = dose: 12.5 mg/kg/injection, schedule: Q01DX005 (ip), vehicle: Klucel (hydroxypropylcellulose) (HPC)
[2] = dose: 6.25 mg/kg/injection, schedule: Q01DX009 (ip), vehicle: saline
[3] = dose: 12.5 mg/kg/injection, schedule: Q01DX009 (ip), vehicle: saline
[4] = dose: 25.0 mg/kg/injection, schedule: Q01DX009 (ip), vehicle: saline
[5] = dose: 50.0 mg/kg/injection, schedule: Q01DX009 (ip), vehicle: saline
[6] = dose: 100.0 mg/kg/injection, schedule: Q01DX009 (ip), vehicle: saline
[7] = dose: 200.0 mg/kg/injection, schedule: Q01DX009 (ip), vehicle: saline
[8] = dose: 50.0 mg/kg/injection, schedule: Q01DX005 (ip), vehicle: Klucel (hydroxypropylcellulose) (HPC)
[9] = dose: 100.0 mg/kg/injection, schedule: Q01DX005 (ip), vehicle: Klucel (hydroxypropylcellulose) (HPC)
[10] = dose: 50.0 mg/kg/injection, schedule: Q01DX009 (ip), vehicle: Klucel (hydroxypropylcellulose) (HPC)
[11] = dose: 50.0 mg/kg/injection, schedule: Q01DX009 (ip), vehicle: suspension in saline
[12] = dose: 50.0 mg/kg/injection, schedule: Q01DX005 (ip), vehicle: saline with Tween-80
[13] = dose: 100.0 mg/kg/injection, schedule: Q01DX005 (ip), vehicle: saline with Tween-80
[14] = dose: 200.0 mg/kg/injection, schedule: Q01DX005 (ip), vehicle: saline with Tween-80
[15] = dose: 25.0 mg/kg/injection, schedule: Q01DX005 (ip), vehicle: Klucel (hydroxypropylcellulose) (HPC)
[16] = dose: 50.0 mg/kg/injection, schedule: Q04DX003 (ip), vehicle: saline with Tween-80

Measured: T/C

CC(C)([CH2][Sn]([Cl])([CH2]C(C)(C)c1ccccc1)[O][Sn]([Cl])([CH2]C(C)(C)c1ccccc1)[CH2]C(C)(C)c1ccccc1)c1ccccc1
inactive: dose: 1.56 mg/kg/injection, schedule: Q01DX005 (ip), vehicle: Klucel (hydroxypropylcellulose) (HPC) 104 % of control and 97 % of control | dose: 3.12 mg/kg/injection, schedule: Q01DX005 (ip), vehicle: Klucel (hydroxypropylcellulose) (HPC) 99 % of control and 100 % of control and 109 % of control | dose: 6.25 mg/kg/injection, schedule: Q01DX005 (ip), vehicle: Klucel (hydroxypropylcellulose) (HPC) 100 % of control and 119 % of control and 96 % of control | [1] 100 % of control and 106 % of control

CCOC(=O)C(=O)Nc1ccc2cc(OC)ccc2c1C#N
inactive: [2] 94 % of control | [3] 94 % of control | [4] 91 % of control | [5] 99 % of control | [6] 106 % of control | [7] 106 % of control

O=c1oc2nc(-c3ccccc3)[nH]c(=O)c2c2c1CCCC2
inactive: dose: 15.0 mg/kg/injection, schedule: Q01DX005 (ip), vehicle: Klucel (hydroxypropylcellulose) (HPC) 92 % of control | dose: 30.0 mg/kg/injection, schedule: Q01DX005 (ip), vehicle: Klucel (hydroxypropylcellulose) (HPC) 86 % of control

CN1CCc2cccc3c2[C@H]1Cc1ccc(O)c(O)c1-3
inactive: [8] 95 % of control | [9] 92 % of control

Cc1cc(NC(=S)SCc2ccc(Cl)cc2)ccc1Cl
inactive: [10] 103 % of control and 118 % of control | [11] 97 % of control | dose: 100.0 mg/kg/injection, schedule: Q01DX009 (ip), vehicle: suspension in saline 92 % of control | dose: 200.0 mg/kg/injection, schedule: Q01DX009 (ip), vehicle: suspension in saline 96 % of control

N#Cc1ccc(NC(=O)CCCC(=O)Nc2ccc(C#N)c(C#N)c2)cc1C#N
inactive: [10] 97 % of control | dose: 100.0 mg/kg/injection, schedule: Q01DX009 (ip), vehicle: Klucel (hydroxypropylcellulose) (HPC) 94 % of control | dose: 200.0 mg/kg/injection, schedule: Q01DX009 (ip), vehicle: Klucel (hydroxypropylcellulose) (HPC) 96 % of control

Cc1ccc(S(=O)(=O)OC2COC(OCc3ccccc3)C(OS(=O)(=O)c3ccc(C)cc3)C2O)cc1 (stereo not drawn)
inactive: [12] 100 % of control | [13] 86 % of control

CC[N](CC)[Ge]([CH2]C)[CH2]C.C[CH2][Ge]([CH2]C)[CH2]C
inactive: [2] 98 % of control and 109 % of control | [3] 98 % of control and 109 % of control | [4] 109 % of control and 114 % of control | [5] 121 % of control | [6] 118 % of control

CC(O)CO (stereo not drawn)
inactive: dose: 1.56 % in 0.5 ml injection vol, schedule: Q01DX009 (ip), vehicle: water 112 % of control | dose: 3.12 % in 0.5 ml injection vol, schedule: Q01DX009 (ip), vehicle: water 119 % of control | dose: 6.25 % in 0.5 ml injection vol, schedule: Q01DX009 (ip), vehicle: water 110 % of control and 119 % of control | dose: 12.5 % in 0.5 ml injection vol, schedule: Q01DX009 (ip), vehicle: water 111 % of control and 113 % of control | dose: 25.0 % in 0.5 ml injection vol, schedule: Q01DX009 (ip), vehicle: water 104 % of control and 110 % of control | dose: 50.0 % in 0.5 ml injection vol, schedule: Q01DX009 (ip), vehicle: water 88 % of control

CCOC(=O)COc1ccc2c(C)cc(=O)oc2c1[N+](=O)[O-]
inactive: dose: 60.0 mg/kg/injection, schedule: Q01DX005 (ip), vehicle: saline with Tween-80 102 % of control | dose: 120.0 mg/kg/injection, schedule: Q01DX005 (ip), vehicle: saline with Tween-80 99 % of control | dose: 240.0 mg/kg/injection, schedule: Q01DX005 (ip), vehicle: saline with Tween-80 98 % of control

C[n+]1ccccc1C1(O)CCCC1
inactive: dose: 50.0 mg/kg/injection, schedule: Q01DX009 (ip), vehicle: saline with Tween-80 94 % of control | dose: 100.0 mg/kg/injection, schedule: Q01DX009 (ip), vehicle: saline with Tween-80 100 % of control | dose: 200.0 mg/kg/injection, schedule: Q01DX009 (ip), vehicle: saline with Tween-80 100 % of control

CSCCCNC(=O)c1csc(-c2csc(CCNC(=O)[C@@H](NSc3ccccc3[N+](=O)[O-])[C@@H](C)O)n2)n1
inactive: dose: 6.25 mg/kg/injection, schedule: Q01DX005 (ip), vehicle: saline with Tween-80 100 % of control | dose: 12.5 mg/kg/injection, schedule: Q01DX005 (ip), vehicle: saline with Tween-80 104 % of control | dose: 25.0 mg/kg/injection, schedule: Q01DX005 (ip), vehicle: saline with Tween-80 95 % of control | [12] 87 % of control | [14] 87 % of control

Cc1cc(C)nc(Nc2nnc(Nc3cc(C)cc(C)n3)c3ccccc23)c1
inactive: [12] 96 % of control | [13] 93 % of control | [14] 87 % of control

COc1cc2c(cc1OC)CC[N+](Cc1ccc([N+](=O)[O-])cc1)=C2
inactive: dose: 12.5 mg/kg/injection, schedule: Q01DX001 (ip), vehicle: saline + alcohol 98 % of control | dose: 25.0 mg/kg/injection, schedule: Q01DX001 (ip), vehicle: saline + alcohol 95 % of control | dose: 50.0 mg/kg/injection, schedule: Q01DX001 (ip), vehicle: saline + alcohol 95 % of control

CC(=O)C/C(=N\NS(=O)(=O)c1cc(Cl)c(Cl)cc1Cl)c1ccc([N+](=O)[O-])cc1
inactive: dose: 100.0 mg/kg/injection, schedule: Q04DX003 (ip), vehicle: saline 99 % of control | dose: 200.0 mg/kg/injection, schedule: Q04DX003 (ip), vehicle: saline 100 % of control | dose: 400.0 mg/kg/injection, schedule: Q04DX003 (ip), vehicle: saline 97 % of control

O=S(=O)(O)c1cc(O)c(O)c(S(=O)(=O)O)c1
inactive: [6] 101 % of control and 95 % of control | [7] 100 % of control and 94 % of control | dose: 400.0 mg/kg/injection, schedule: Q01DX009 (ip), vehicle: saline 100 % of control and 103 % of control | dose: 600.0 mg/kg/injection, schedule: Q01DX009 (ip), vehicle: saline 104 % of control and 90 % of control

COc1ccc2c(c1OC)N(C)CC1=C2OC(C)(C)C2C1CC1(C)CC2c2c(c3ccc(OC)c(OC)c3n(C)c2=O)O1 (stereo not drawn)
inactive: [1] 90 % of control | [15] 93 % of control | [8] 90 % of control

CC(=O)OC1NC(=O)C(OC(C)=O)NC1=O (stereo not drawn)
inactive: [15] 100 % of control | [8] 98 % of control and 102 % of control (2×) | [9] 101 % of control (2×) and 120 % of control | dose: 200.0 mg/kg/injection, schedule: Q01DX005 (ip), vehicle: Klucel (hydroxypropylcellulose) (HPC) 102 % of control and 107 % of control and 110 % of control

COc1cc(N(CCCl)CCCl)c(OC)cc1C=Nc1cccc(Br)c1
active: [4] 167 % of control | [5] 254 % of control | [11] 150 % of control
inactive: [2] 113 % of control | dose: 12.5 mg/kg/injection, schedule: Q01DX009 (ip), vehicle: suspension in saline 116 % of control | dose: 25.0 mg/kg/injection, schedule: Q01DX009 (ip), vehicle: suspension in saline 124 % of control

O=[N+]([O-])c1ccc(-n2[nH]nnc2=S)cc1
inactive: [16] 98 % of control and 104 % of control | dose: 100.0 mg/kg/injection, schedule: Q04DX003 (ip), vehicle: saline with Tween-80 100 % of control and 104 % of control | dose: 200.0 mg/kg/injection, schedule: Q04DX003 (ip), vehicle: saline with Tween-80 98 % of control and 91 % of control

C[n+]1cccc(C(N)=O)c1
inactive: dose: 25.0 mg/kg/injection, schedule: Q01DX009 (ip), vehicle: water 102 % of control | dose: 50.0 mg/kg/injection, schedule: Q01DX009 (ip), vehicle: water 112 % of control | dose: 100.0 mg/kg/injection, schedule: Q01DX009 (ip), vehicle: water 112 % of control | dose: 200.0 mg/kg/injection, schedule: Q01DX009 (ip), vehicle: water 110 % of control | dose: 400.0 mg/kg/injection, schedule: Q01DX009 (ip), vehicle: water 100 % of control

CCCCn1cnc2c(SC)ncnc21
inactive: dose: 22.0 mg/kg/injection, schedule: Q04DX003 (ip), vehicle: saline with Tween-80 110 % of control | dose: 33.0 mg/kg/injection, schedule: Q04DX003 (ip), vehicle: saline with Tween-80 110 % of control | [16] 115 % of control | dose: 75.0 mg/kg/injection, schedule: Q04DX003 (ip), vehicle: saline with Tween-80 110 % of control
